Assay results taken from ChEMBL document CHEMBL1144455, “A small molecule-kinase interaction map for clinical kinase inhibitors” (Nat Biotechnol, 2005).

What was measured:
[1] = target: T1, Serine/threonine-protein kinase 3 (Mus musculus, UniProt Q9JI10)
T1 sequence (Q9JI10 whole entry): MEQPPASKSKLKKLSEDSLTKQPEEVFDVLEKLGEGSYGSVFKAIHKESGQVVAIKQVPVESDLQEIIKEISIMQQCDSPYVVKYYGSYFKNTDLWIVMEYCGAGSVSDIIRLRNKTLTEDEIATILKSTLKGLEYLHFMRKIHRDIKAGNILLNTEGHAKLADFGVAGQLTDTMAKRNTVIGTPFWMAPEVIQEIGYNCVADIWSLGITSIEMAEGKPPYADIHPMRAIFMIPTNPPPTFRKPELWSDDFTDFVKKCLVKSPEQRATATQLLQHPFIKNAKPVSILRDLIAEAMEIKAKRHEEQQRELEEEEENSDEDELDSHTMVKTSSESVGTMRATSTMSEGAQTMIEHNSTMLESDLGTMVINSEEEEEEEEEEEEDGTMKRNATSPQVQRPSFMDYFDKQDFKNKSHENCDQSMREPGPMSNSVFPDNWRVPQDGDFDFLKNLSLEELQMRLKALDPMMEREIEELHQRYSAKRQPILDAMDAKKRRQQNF

[2] = target: LIM domain kinase 1 (Homo sapiens, UniProt P53667)
Sequence of LIM domain kinase 1 (P53667 whole entry, the tested form may be a part): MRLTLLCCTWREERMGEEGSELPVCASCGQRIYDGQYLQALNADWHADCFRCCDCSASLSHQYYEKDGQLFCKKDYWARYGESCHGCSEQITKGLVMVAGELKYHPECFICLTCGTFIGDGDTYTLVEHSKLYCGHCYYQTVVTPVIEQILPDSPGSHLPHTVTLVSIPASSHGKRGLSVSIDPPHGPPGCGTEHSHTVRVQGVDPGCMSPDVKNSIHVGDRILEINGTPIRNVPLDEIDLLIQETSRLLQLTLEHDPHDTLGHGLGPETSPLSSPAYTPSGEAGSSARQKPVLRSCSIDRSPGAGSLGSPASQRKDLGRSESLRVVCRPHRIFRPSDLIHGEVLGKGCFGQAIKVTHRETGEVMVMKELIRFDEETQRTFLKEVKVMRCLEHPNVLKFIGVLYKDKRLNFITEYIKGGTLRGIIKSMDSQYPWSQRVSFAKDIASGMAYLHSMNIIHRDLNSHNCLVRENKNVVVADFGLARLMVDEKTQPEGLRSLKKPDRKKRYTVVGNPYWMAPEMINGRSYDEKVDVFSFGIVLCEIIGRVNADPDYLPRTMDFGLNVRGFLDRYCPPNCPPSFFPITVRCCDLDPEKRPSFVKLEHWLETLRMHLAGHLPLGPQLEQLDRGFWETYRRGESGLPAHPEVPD

[3] = target: Platelet-derived growth factor receptor beta (Homo sapiens, UniProt P09619)
[4] = target: T2, Serine/threonine-protein kinase 4 (Homo sapiens, UniProt Q13043)
T2 sequence (Q13043 whole entry): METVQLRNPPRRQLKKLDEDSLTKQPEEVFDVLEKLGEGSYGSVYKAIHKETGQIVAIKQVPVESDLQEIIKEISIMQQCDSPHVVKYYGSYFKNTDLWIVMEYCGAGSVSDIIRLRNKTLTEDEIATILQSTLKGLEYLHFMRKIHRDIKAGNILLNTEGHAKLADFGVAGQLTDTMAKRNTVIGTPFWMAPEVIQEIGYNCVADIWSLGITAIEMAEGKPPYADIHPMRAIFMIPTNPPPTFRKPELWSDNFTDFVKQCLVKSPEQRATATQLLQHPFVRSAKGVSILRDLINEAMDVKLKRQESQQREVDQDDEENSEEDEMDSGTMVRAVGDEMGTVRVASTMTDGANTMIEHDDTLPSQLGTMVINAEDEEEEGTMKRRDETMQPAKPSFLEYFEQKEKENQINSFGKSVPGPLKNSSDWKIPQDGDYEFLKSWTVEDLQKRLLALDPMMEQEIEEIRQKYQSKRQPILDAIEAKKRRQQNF

[5] = target: Death-associated protein kinase 3 (Homo sapiens, UniProt O43293)
[6] = target: Calcium/calmodulin-dependent protein kinase kinase 1 (Homo sapiens, UniProt Q8N5S9)
Sequence of Calcium/calmodulin-dependent protein kinase kinase 1 (Q8N5S9 whole entry): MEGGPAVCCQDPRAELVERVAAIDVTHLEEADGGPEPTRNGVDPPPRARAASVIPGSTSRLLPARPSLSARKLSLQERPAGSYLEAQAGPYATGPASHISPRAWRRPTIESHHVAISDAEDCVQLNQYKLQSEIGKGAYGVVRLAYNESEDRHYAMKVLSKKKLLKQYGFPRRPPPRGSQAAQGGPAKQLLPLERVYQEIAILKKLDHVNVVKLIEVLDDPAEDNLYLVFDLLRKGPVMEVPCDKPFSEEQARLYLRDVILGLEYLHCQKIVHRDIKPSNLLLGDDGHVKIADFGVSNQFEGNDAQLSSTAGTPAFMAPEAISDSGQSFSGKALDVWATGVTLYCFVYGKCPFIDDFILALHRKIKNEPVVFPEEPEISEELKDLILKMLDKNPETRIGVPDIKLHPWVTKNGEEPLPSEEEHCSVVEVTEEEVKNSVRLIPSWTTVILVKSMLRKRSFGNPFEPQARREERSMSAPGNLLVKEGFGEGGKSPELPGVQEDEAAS

[7] = target: High affinity nerve growth factor receptor (Homo sapiens, UniProt P04629)
Sequence of High affinity nerve growth factor receptor (P04629 whole entry): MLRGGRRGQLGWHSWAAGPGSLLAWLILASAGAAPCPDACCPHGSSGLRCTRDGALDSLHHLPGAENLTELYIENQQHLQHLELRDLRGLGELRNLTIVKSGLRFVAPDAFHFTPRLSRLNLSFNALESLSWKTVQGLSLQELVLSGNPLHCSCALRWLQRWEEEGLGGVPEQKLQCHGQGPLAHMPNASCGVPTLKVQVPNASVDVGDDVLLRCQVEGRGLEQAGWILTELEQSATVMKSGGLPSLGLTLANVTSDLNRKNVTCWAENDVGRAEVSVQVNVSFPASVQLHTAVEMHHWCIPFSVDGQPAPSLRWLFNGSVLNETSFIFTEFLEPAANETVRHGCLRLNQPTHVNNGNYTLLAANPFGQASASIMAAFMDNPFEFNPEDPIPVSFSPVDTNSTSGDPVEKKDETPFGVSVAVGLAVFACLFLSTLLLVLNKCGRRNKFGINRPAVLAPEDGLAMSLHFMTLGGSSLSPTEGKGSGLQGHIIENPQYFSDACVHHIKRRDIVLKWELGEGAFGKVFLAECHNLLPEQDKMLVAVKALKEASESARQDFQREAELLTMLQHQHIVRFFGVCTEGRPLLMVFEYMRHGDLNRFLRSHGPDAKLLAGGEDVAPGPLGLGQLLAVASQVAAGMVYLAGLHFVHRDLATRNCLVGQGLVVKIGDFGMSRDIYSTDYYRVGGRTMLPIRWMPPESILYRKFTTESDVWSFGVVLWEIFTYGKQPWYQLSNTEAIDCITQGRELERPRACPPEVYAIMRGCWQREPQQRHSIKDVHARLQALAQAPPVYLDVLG

[8] = target: Activated CDC42 kinase 1 (Homo sapiens, UniProt Q07912)
Sequence of Activated CDC42 kinase 1 (Q07912 whole entry): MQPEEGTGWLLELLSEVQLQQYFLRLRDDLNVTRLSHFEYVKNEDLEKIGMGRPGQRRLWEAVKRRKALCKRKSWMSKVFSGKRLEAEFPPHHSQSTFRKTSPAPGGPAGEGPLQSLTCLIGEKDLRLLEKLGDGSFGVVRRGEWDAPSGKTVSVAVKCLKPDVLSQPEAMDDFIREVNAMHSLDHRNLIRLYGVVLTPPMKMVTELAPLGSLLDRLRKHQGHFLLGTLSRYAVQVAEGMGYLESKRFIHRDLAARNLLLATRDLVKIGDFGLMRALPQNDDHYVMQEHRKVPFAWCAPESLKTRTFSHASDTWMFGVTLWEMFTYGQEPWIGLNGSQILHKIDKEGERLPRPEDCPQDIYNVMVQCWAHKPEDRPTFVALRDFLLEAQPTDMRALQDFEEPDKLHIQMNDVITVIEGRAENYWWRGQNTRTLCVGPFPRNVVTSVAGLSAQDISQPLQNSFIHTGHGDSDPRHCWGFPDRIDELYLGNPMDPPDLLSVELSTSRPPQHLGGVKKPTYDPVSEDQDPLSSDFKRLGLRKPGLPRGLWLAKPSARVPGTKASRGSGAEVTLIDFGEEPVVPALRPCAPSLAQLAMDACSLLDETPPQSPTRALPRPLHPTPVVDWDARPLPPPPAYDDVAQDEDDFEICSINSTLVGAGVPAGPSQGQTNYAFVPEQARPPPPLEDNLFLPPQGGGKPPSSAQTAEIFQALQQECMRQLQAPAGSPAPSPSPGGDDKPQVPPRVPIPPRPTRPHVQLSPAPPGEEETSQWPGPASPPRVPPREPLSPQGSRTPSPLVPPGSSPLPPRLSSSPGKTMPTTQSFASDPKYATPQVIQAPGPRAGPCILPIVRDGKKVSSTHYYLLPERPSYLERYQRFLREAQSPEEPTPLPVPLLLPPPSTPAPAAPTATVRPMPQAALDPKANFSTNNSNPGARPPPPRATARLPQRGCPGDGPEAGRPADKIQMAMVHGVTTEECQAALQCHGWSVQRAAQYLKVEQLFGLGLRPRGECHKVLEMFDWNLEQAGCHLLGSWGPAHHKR

[9] = target: T3, Serine/threonine-protein kinase Nek2 (Homo sapiens, UniProt P51955)
T3 sequence (P51955 whole entry): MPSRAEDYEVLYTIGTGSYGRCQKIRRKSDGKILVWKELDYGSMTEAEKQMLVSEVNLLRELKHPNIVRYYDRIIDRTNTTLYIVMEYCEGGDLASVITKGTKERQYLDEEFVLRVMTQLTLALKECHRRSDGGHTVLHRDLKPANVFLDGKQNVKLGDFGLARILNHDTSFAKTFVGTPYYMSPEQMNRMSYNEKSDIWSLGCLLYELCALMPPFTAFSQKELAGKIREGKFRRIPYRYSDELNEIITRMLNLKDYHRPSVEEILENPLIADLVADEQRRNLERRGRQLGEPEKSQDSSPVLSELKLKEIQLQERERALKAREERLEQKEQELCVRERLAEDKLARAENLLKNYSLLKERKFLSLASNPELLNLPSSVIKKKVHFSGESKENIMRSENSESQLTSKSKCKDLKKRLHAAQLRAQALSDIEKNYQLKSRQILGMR

[10] = target: Tyrosine-protein kinase Fgr (Homo sapiens, UniProt P09769)
Sequence of Tyrosine-protein kinase Fgr (P09769 whole entry): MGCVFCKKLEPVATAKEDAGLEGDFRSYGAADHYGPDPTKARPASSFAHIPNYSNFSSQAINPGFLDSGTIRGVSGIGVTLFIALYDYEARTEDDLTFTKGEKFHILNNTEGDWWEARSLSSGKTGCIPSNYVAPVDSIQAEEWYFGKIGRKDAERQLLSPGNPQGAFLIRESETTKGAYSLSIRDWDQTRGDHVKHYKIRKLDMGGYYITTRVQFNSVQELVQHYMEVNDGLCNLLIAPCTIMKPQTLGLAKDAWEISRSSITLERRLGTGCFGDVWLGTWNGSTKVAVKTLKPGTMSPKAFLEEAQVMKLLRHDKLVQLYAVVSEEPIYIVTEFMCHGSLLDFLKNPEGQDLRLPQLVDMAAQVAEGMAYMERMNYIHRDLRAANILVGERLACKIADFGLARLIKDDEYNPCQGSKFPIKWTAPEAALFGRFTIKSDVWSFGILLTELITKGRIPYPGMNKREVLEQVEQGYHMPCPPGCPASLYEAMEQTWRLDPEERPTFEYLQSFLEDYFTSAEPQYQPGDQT

[11] = target: Fibroblast growth factor receptor 3 (Homo sapiens, UniProt P22607)
Sequence of Fibroblast growth factor receptor 3 (P22607 whole entry): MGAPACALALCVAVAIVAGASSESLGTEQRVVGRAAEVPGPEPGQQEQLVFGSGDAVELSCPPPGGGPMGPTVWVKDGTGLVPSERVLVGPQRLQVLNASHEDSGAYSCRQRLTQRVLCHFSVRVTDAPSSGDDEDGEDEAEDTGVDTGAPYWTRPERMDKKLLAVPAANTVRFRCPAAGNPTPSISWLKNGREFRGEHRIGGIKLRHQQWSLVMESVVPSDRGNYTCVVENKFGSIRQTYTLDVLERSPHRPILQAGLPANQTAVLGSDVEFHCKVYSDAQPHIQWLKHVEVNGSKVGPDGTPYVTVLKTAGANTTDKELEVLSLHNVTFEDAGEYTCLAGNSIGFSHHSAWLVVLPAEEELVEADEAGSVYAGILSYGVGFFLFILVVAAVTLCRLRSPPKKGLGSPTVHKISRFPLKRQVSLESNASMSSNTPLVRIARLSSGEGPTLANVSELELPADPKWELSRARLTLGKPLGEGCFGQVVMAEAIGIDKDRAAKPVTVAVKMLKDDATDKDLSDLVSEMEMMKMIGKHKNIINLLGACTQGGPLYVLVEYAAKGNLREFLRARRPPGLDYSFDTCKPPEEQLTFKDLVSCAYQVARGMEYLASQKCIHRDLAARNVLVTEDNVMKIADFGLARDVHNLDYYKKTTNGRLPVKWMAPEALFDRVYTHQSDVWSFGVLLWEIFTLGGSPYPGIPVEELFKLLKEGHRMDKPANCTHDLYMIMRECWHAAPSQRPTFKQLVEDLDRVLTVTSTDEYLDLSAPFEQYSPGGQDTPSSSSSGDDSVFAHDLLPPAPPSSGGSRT

[12] = target: Calcium/calmodulin-dependent protein kinase type II subunit gamma (Homo sapiens, UniProt Q13555)
Sequence of Calcium/calmodulin-dependent protein kinase type II subunit gamma (Q13555 whole entry): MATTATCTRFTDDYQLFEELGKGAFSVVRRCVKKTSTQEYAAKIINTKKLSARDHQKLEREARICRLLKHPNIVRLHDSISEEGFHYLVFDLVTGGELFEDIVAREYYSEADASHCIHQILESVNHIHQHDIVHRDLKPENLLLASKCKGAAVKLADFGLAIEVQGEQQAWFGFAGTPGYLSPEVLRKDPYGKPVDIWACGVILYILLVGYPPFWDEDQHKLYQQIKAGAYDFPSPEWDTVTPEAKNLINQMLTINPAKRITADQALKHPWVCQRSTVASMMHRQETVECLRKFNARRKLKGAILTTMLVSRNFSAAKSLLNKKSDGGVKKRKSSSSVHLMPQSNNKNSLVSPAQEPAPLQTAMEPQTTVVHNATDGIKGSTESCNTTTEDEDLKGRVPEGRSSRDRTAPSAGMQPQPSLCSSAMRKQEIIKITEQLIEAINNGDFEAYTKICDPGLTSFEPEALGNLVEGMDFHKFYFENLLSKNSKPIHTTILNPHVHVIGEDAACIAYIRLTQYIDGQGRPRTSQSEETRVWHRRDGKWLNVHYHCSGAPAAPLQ

[13] = target: T4, Membrane-associated tyrosine- and threonine-specific cdc2-inhibitory kinase (Homo sapiens, UniProt Q99640)
T4 sequence (Q99640 whole entry): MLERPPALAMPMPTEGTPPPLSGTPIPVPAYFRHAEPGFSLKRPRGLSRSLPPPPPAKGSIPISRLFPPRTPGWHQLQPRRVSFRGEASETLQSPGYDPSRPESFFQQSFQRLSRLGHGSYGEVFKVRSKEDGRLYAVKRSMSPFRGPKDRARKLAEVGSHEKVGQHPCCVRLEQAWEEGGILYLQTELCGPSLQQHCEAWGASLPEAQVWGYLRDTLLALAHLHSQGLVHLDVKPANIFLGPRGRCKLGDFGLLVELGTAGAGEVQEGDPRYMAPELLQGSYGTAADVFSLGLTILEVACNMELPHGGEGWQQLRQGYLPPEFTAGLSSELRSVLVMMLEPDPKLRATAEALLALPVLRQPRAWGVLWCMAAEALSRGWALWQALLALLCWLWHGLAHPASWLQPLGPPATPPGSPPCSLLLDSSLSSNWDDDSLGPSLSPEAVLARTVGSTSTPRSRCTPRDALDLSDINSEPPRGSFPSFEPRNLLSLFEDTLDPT

[14] = target: Calcium/calmodulin-dependent protein kinase type II subunit delta (Homo sapiens, UniProt Q13557)

Measured: Kd

C#Cc1cccc(Nc2ncnc3cc(OCCOC)c(OCCOC)cc23)c1 [ERLOTINIB]
Not Active: all assays above

Cc1ccc(NC(=O)c2ccc(CN3CCN(C)CC3)cc2)cc1Nc1nccc(-c2cccnc2)n1 [IMATINIB]
not listed: [3]
Not Active: all other assays above

O=c1ncn2nc(Sc3ccc(F)cc3F)ccc2c1-c1c(Cl)cccc1Cl [NEFLAMAPIMOD]
not listed: [3] | [10]
Not Active: all other assays above

CCOc1cc2ncc(C#N)c(Nc3ccc(F)c(Cl)c3)c2cc1NC(=O)/C=C/CN(C)C [PELITINIB]
Not Active: [2] | [3] | [6] | [7] | [10] | [11] | [12] | [14]

Oc1ccc(-c2nc(-c3ccc(F)cc3)c(-c3ccncc3)[nH]2)cc1 [SB-202190]
Not Active: all assays above

C[S+]([O-])c1ccc(-c2nc(-c3ccc(F)cc3)c(-c3ccncc3)[nH]2)cc1 (configuration not stated) [SB-203580]
Not Active: all assays above

CC[C@H](CO)Nc1nc(NCc2ccccc2)c2ncn(C(C)C)c2n1 [SELICICLIB]
Not Active: all assays above

Oc1c2ccccc2c2c3c(cccc13)N=N2 [SP-600125]
not listed: [1] | [4] | [5]
Not Active: all other assays above

COc1cc2c(N3CCN(C(=O)Nc4ccc(OC(C)C)cc4)CC3)ncnc2cc1OCCCN1CCCCC1 [TANDUTINIB]
not listed: [3] | [7]
Not Active: all other assays above
